The record followed here is the NIST ThermoML archive (doi:10.1016/j.tca.2018.02.007).

The conditions of series [1]: for thermal conductivity: 101.33 kPa, T-histrory method; for Triple point temperature: DSC.
Series [2] in a line: Molar enthalpy of transition or fusion. The following applies: DSC.

Numbers after ± are expanded uncertainties.

For `OCC(CO)(CO)CO` [2,2-bis(hydroxymethyl)-1,3-propanediol], the thermal conductivity in series [1] (340.65 K, Crystal 2) was 0.112 ± 0.007 W/m/K; in series [1] (395.65 K, Crystal 2), 0.108 ± 0.007 W/m/K; in series [1] (450.65 K, Crystal 2), 0.104 ± 0.006 W/m/K. Further, the Triple point temperature in series [1] (Crystal 1) was found to be 531.25 ± 0.8 K; in series [1] (Crystal 2) it was 454.55 ± 0.8 K. Besides, the “Molar enthalpy of transition or fusion” value in series [2] (Crystal 1) came to 1.4 ± 0.0645 kcal/mol; in series [2] (Crystal 2), 8.59 ± 0.382 kcal/mol.
